Reference: patent US12612387B2, “RAS inhibitors and methods of using the same” (Jazz Pharmaceuticals Ireland Limited, priority 2020, dated 2026)

Key:
K-RAS G12C = molecular target: T1, K-RAS G12C (Homo sapiens, UniProt P01116, G12C); experiment: Compound depletion assay, K-RAS G12C; type: binding; conditions: G12C protein 20 μM, compound 8 μM, 25° C.
T1 construct: His tag; purchased Stratech
Experimental: (§1) Compound Depletion Assay Method
(§2) Lyophilized human K-RAS (12 Cys) protein (His tag) and human K-RAS (12 Asp) protein (His tag) were purchased from Stratech and reconstituted at 30 μM in water. The protein concentration of K-RAS G12C and K-RAS G12D was adjusted to 20 μM in K-RAS Assay Buffer (20 mM HEPES pH 7.5, 150 mM NaCl, 1 mM MgCl2). A 49 μl aliquot of protein solution was transferred to 1.5 ml eppendorfs and incubated at room temperature for 10 minutes. A 1 μl aliquot of compound solution in DMSO was added to the protein solutions in the 1.5 ml eppendorfs to initiate the reaction, with a final assay compound concentration of 8 μM. Reactions were agitated at 25° C., 700 rpm. At each time point (0, 30, 180, 360, 1440 minutes), 10 μl of the reaction mixture was removed, added to 30 μl quench solution (0.3% formic acid, 75 nM propranolol in acetonitrile) to stop the reaction and stored at 4° C. Once all reactions were quenched, the samples were centrifuged at 16000 g for 10 minutes to pellet the protein and salts. A 10 μl aliquot of supernatant containing compound was diluted in 50:50 acetonitrile:H2O in a 96 well plate. The plates were heat sealed and the samples analysed by LC-MS/MS to determine the concentration of compound remaining in the samples. To determine the reaction progress, the compound signal was normalized to the internal standard signal (propranolol). The decrease in free compound concentration is shown as a percentage over time, with the […] at time zero fixed at one hundred percent. Compound is assumed to be completely depleted when no longer detectable with a double blank sample as reference.

K-RAS G12D = molecular target: T2, K-RAS G12D (Homo sapiens, UniProt P01116, G12D); experiment: Compound depletion assay, K-RAS G12D; type: binding; conditions: G12D protein 20 μM, compound 8 μM, 25° C.
T2 construct: His tag; purchased Stratech
Experimental: as §1, §2

T1 sequence (P01116 1-188 isoform P01116-2 G12C): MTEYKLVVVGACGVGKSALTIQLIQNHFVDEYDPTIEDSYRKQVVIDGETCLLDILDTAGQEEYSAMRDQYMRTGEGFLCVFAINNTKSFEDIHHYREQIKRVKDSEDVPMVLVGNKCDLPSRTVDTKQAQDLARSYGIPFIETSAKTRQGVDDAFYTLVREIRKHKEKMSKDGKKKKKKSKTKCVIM
T2 sequence (P01116 1-188 isoform P01116-2 G12D): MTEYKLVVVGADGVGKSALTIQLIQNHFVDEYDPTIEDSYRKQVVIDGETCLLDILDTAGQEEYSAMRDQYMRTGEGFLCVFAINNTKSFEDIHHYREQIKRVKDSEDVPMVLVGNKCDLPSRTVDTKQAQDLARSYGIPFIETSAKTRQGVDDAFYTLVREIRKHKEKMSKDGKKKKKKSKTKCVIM

SMILES | 30 min Category (compound remaining at timepoint) (K-RAS G12C; 30 min) | 3 hr Category (compound remaining at timepoint) (K-RAS G12C) | 24 hr Category (compound remaining at timepoint) (K-RAS G12C) | 3 hr Category (compound remaining at timepoint) (K-RAS G12D) | 24 hr Category (compound remaining at timepoint) (K-RAS G12D)
C=CC(=O)N1CCN(c2cc(C(=O)Nc3cccc4ccccc34)nc(-c3ccnn3C)n2)CC1 [Example 11, 2-(2-methylpyrazol-3-yl)-N-(1-naphthyl)-6-(4-prop-2-enoylpiperazin-1-yl)pyrimidine-4-carboxamide] | A (≥70% compound remaining at timepoint) | A (≥70% compound remaining at timepoint) | A (≥70% compound remaining at timepoint) | A (≥70% compound remaining at timepoint) | A (≥70% compound remaining at timepoint)
C=CC(=O)N1CCN(c2cc(NC(=O)c3cccc4ccccc34)nc(N3CCN(C)CC3)n2)CC1 [Example 12, N-[2-(4-methylpiperazin-1-yl)-6-(4-prop-2-enoylpiperazin-1-yl)pyrimidin-4-yl]naphthalene-1-carboxamide] | – | A (≥70% compound remaining at timepoint) | A (≥70% compound remaining at timepoint) | A (≥70% compound remaining at timepoint) | A (≥70% compound remaining at timepoint)
C=CC(=O)N1CCN(c2cc(C(=O)N(C)c3cccc4ccccc34)nc(OC[C@@H]3CCCN3C)n2)CC1 [Example 13, N-methyl-2-[[(2S)-1-methylpyrrolidin-2-yl]methoxy]-N-(1-naphthyl)-6-(4-prop-2-enoylpiperazin-1-yl)pyrimidine-4-carboxamide] | – | A (≥70% compound remaining at timepoint) | A (≥70% compound remaining at timepoint) | A (≥70% compound remaining at timepoint) | A (≥70% compound remaining at timepoint)
C=CC(=O)N1CCN(c2cc(C(=O)NCc3ccccc3)nc(OC[C@@H]3CCCN3C)n2)CC1 [Example 14, N-benzyl-2-[[(2S)-1-methylpyrrolidin-2-yl]methoxy]-6-(4-prop-2-enoylpiperazin-1-yl)pyrimidine-4-carboxamide] | – | A (≥70% compound remaining at timepoint) | A (≥70% compound remaining at timepoint) | A (≥70% compound remaining at timepoint) | A (≥70% compound remaining at timepoint)
C=CC(=O)N1CCN(c2cc(C(=O)N3c4ccccc4CCC3C)nc(OC[C@@H]3CCCN3C)n2)CC1 (stereo partly drawn) [Example 15, 1-[4-[6-(2-methyl-3,4-dihydro-2H-quinoline-1-carbonyl)-2-[[(2S)-1-methylpyrrolidin-2-yl]methoxy]pyrimidin-4-yl]piperazin-1-yl]prop-2-en-1-one] | – | A (≥70% compound remaining at timepoint) | A (≥70% compound remaining at timepoint) | A (≥70% compound remaining at timepoint) | A (≥70% compound remaining at timepoint)
C=CC(=O)N1CCN(c2cc(C(=O)N3CCOc4ccccc43)nc(OC[C@@H]3CCCN3C)n2)CC1 [Example 16, 1-[4-[6-(2,3-dihydro-1,4-benzoxazine-4-carbonyl)-2-[[(2S)-1-methylpyrrolidin-2-yl]methoxy]pyrimidin-4-yl]piperazin-1-yl]prop-2-en-1-one] | – | A (≥70% compound remaining at timepoint) | A (≥70% compound remaining at timepoint) | A (≥70% compound remaining at timepoint) | A (≥70% compound remaining at timepoint)
C=CC(=O)N1CCN(c2cc(C(=O)N3CCCc4cccc(C)c43)nc(OC[C@@H]3CCCN3C)n2)CC1 [Example 17, 1-[4-[6-(8-methyl-3,4-dihydro-2H-quinoline-1-carbonyl)-2-[[(2S)-1-methylpyrrolidin-2-yl]methoxy]pyrimidin-4-yl]piperazin-1-yl]prop-2-en-1-one] | – | A (≥70% compound remaining at timepoint) | A (≥70% compound remaining at timepoint) | A (≥70% compound remaining at timepoint) | A (≥70% compound remaining at timepoint)
C=CC(=O)N1CCN(c2cc(C(=O)Nc3ccccc3)nc(OC[C@@H]3CCCN3C)n2)CC1 [Example 18, 2-[[(2S)-1-methylpyrrolidin-2-yl]methoxy]-N-phenyl-6-(4-prop-2-enoylpiperazin-1-yl)pyrimidine-4-carboxamide] | – | A (≥70% compound remaining at timepoint) | A (≥70% compound remaining at timepoint) | A (≥70% compound remaining at timepoint) | A (≥70% compound remaining at timepoint)
C=CC(=O)N1CCN(c2cc(C(=O)Nc3c(C)ccc4ncccc34)nc(OC[C@@H]3CCCN3C)n2)CC1 [Example 19, 2-[[(2S)-1-methylpyrrolidin-2-yl]methoxy]-N-(6-methyl-5-quinolyl)-6-(4-prop-2-enoylpiperazin-1-yl)pyrimidine-4-carboxamide] | – | A (≥70% compound remaining at timepoint) | A (≥70% compound remaining at timepoint) | A (≥70% compound remaining at timepoint) | A (≥70% compound remaining at timepoint)
C=CC(=O)N1CCN(c2cc(C(=O)Nc3cccc4ccccc34)nc(N3CCN(C)CC3)n2)CC1 [Example 20, 2-(4-methylpiperazin-1-yl)-N-(1-naphthyl)-6-(4-prop-2-enoylpiperazin-1-yl)pyrimidine-4-carboxamide] | – | A (≥70% compound remaining at timepoint) | A (≥70% compound remaining at timepoint) | A (≥70% compound remaining at timepoint) | A (≥70% compound remaining at timepoint)
C=CC(=O)N1CCN(c2cc(C(=O)Nc3cccc4ccccc34)nc(N(C)CCN(C)C)n2)CC1 [Example 21, 2-[2-(dimethylamino)ethyl-methyl-amino]-N-(1-naphthyl)-6-(4-prop-2-enoylpiperazin-1-yl)pyrimidine-4-carboxamide] | – | A (≥70% compound remaining at timepoint) | A (≥70% compound remaining at timepoint) | A (≥70% compound remaining at timepoint) | A (≥70% compound remaining at timepoint)
C=CC(=O)N1CCN(c2cc(C(=O)Nc3cccc4[nH]ncc34)nc(OC[C@@H]3CCCN3C)n2)CC1 [Example 22, N-(1H-indazol-4-yl)-2-[[(2S)-1-methylpyrrolidin-2-yl]methoxy]-6-(4-prop-2-enoylpiperazin-1-yl)pyrimidine-4-carboxamide] | – | A (≥70% compound remaining at timepoint) | A (≥70% compound remaining at timepoint) | A (≥70% compound remaining at timepoint) | A (≥70% compound remaining at timepoint)
